Source: publication PMC7287882, “Dual miRNases for Triple Incision of miRNA Target: Design Concept and Catalytic Performance” (Molecules, 2020)

Tested on: miR-17
Experiment: Ribonuclease activity assay with DC or ON and RNase H, miR-17
Format: biochemical
Conditions: for total extent of miRNA cleavage in the presence of RNase H: miRNA 1 µM, DC or ON 20 µM, buffer (2) pH 7.8, 37 °C, at plateau, by 2 h
Protocol: It is known that DNA-like antisense oligonucleotides after binding to target RNAs form a substrate for intracellular endonuclease RNases H. RNA hydrolysis in RNA-DNA heteroduplex by RNase H1 occurs at a distance of 6–10 nucleotides from the 5′-end of RNA (approximately one turn of the helix). Our design of the Dual conjugates here was carried out in such a way to ensure that their heteroduplexes with the matching miRNA sequences could serve as potential substrates for RNase H. To achieve that, we ensured that the length of the oligonucleotide recognition motifs A and B within the DC was 8–10 nt, which was expected to be sufficient for interaction and cleavage by RNase H (see Figure 1 and Table 1). As indicated above, a few adenine aromatic basis within each recognition motifs A and B were replaced with 2-aminoadenines to enhance the hybridization ability of the DC with miRNA. […] In order to verify this, as well as to evaluate the ability of RNase H to contribute to the miRNA cleavage catalyzed by DC, we studied the kinetics of the target miRNA cleavage performed (1) by the DC alone; (2) by RNase H, when the target miRNA was hybridized with the nonconjugated Dual oligonucleotide (ON); and (3) by both DC and RNase H present in the same reaction mixture. The study was performed against miR-17, miR-155 and miR-21 using a 20-fold excess of DCs or respective oligonucleotides over the matching miRNA (see Table 1 for sequences).
Figure 6 Cleavage kinetics of 5′-[^32P]-labeled miRNAs by DCs and/or RNase H. (a,d,g). Radioautographs of 18% denaturing PAAG showing the profiles of cleavage of miR-17, miR-155 and miR-21, respectively. Duplexes formed by 5′-[^32P]-miRNA (1 µM) and DC or ON (20 µM) were incubated at 37 °C for 48–72 h. RNase H was taken in the concentration of 5 or 100 u/mL. Lanes Im and T1–imidazole ladder and partial RNA digestion with RNase T1, respectively; control–RNA was incubated in the absence of DC or ON and in the presence of RNase H (100 u/mL); (b,e,h) Time dependency of cleavage of miR-17, miR-155 and miR-21, respectively, by DCs and/or RNase H. Data are presented as mean ± s.e. *—indicates statistically significant difference with p < 0.05; (c,f,i). Positions of miR-17, miR-155 and miR-21 cleavage, respectively, induced by RNase H in duplex with ON (red arrows), and by combination of DC (black arrows) and RNase H. A–2-aminoadenine.
The reaction mixture (10 µL) containing 20 mM Tris-HCl, pH 7.8, 40 mM KCl, 8 mM MgCl2, 1 mM DTT, 0.02 mg/mL BSA, 800 cpm (Cherenkov’s counting) of [^32P]-miRNA, 1 µM unlabeled miRNA, 20 µM either DC or Dual oligonucleotide was incubated at 37 °C for 20 min then RNase H (5 or 100 U/mL) was added and the mixture was further incubated for 48 h. Aliquots were taken at 0, 1, 6, 24 and 48 h then the reaction was quenched, RNA cleavage products were collected and analyzed as described above.

CTACCTGC–linker 1–[GRLRL]2–linker 2–AAGCACTTTG [miRNA-17-DC, Dual oligonucleotide-peptide conjugate targeted to miR-17: catalytic peptide [LRLRG]2 between two 2-aminoadenine-containing oligodeoxyribonucleotides]
total extent of miRNA cleavage in the presence of RNase H (RNase H 5 u/mL): 44%
total extent of miRNA cleavage in the presence of RNase H (RNase H 100 u/mL): 92%
total efficiency of cleavage in the complex with DC relative to the miRNA/ON complex (RNase H at both 5 and 100 u/mL): more than 1.5 fold
increase in the rate of cleavage by DC with RNase H compared with DC alone (after 1 h): up to 10 fold
increase in the rate of cleavage by DC with RNase H compared with RNase H alone (after 1 h): 1.5 fold
